Experimental data as given in patent US6162805A, “Use of an NK-1 receptor antagonist and an SSRI for treating obesity” (Merck Sharp & Dohme Limited, priority 1997, dated 2000).
Like-named read-outs stand apart in the source and are kept apart here.

Columns and labels:
foot tapping in gerbils = assay: Gerbil Foot-Tapping; type: in vivo, Mongolian gerbil; details: Meriones unguiculatus, iv, i.v.
Text: CNS-penetrant NK-1 receptor antagonists for use in the present invention can be identified by their ability to inhibit foot tapping in gerbils induced by anxiogenic agents (such as pentagastrin) or central infusion of NK-1 receptor agonists such as GR73632, or caused by aversive stimulation such as foot shock or single housing, based on the method of Rupniak & Williams, Eur. J. Pharmacol., 1994, 265, 179. […] Alternatively, test compounds may be administered orally or by subcutaneous or intraperitoneal routes. A skin incision is then made in the midline of the scalp to expose the skull. An anxiogenic agent (e.g. pentagastrin) or a selective NK-1 receptor agonist (e.g. GR73632 ([…] ]-substance P-(7-11)) is infused directly into the cerebral ventricles (e.g. 3 pmol in 5 μl i.c.v., depending on test substance) by vertical insertion of a cuffed 27 gauge needle to a depth of 4.5 mm below bregma. The scalp incision is closed and the animal allowed to recover from anaesthesia in a clear perspex observation box (approximately 25 cm×20 cm×20 cm). The duration and/or intensity of hind foot tapping is then recorded continuously for approximately 5 minutes. Alternatively, the ability of test compounds to inhibit foot tapping evoked by aversive stimulation, such as foot shock or single housing, may be studied using a similar method of quantification.

[1] = test system: cisplatin-induced emesis in ferrets; assay: Ferret Emesis (cisplatin-induced); type: in vivo; details: Mustela putorius, po, read-out: ferret emesis ID90
Description: Ten minutes later they are fed with approximately 100 g of tinned cat food. At 60 minutes following oral dosing, cisplatin (10 mg/kg) is given i.v. via a jugular vein catheter inserted under a brief period of halothane anaesthesia. The catheter is then removed, the jugular vein ligated and the skin incision closed. The ferrets recover rapidly from the anaesthetic and are mobile within 10-20 minutes. The animals are observed continuously during recovery from the anaesthetic and for 4 hours following the cisplatin injection, after which time the animals are killed humanely. The numbers of retches and vomits occurring during the 4 hours after cisplatin administration are recorded by trained observers.

[2] = test system: separation-induced vocalisations in guinea-pig pups; assay: Separation-Induced Vocalisation in guinea-pig pups; type: in vivo; details: for ED50: Cavia porcellus, read-out: guinea-pig vocalisation ID50; for attenuation of separation-induced vocalisations compared with baseline: 30 minutes previously
Text: Male and female guinea-pigs pups are housed in family groups with their mothers and littermates throughout the study. Experiments are commenced […] when the pups are at least 2 weeks old. Before entering an experiment, the pups may be screened to ensure that a vigorous vocalisation response is reproducibly elicited following maternal separation. The pups are placed individually in an observation cage (approximately 55 cm×39 cm×19 cm) in a room physically isolated from the home cage for approximately 15 minutes and the duration and/or number of vocalisation during this baseline period is recorded. […] On test days each pup receives an oral dose or an s.c. or i.p. injection of test compound or vehicle and is then immediately returned to the home cage with its mother and siblings for at least 30 to 60 minutes (or for up to 4 hours following an oral dose, dependent upon the oral pharmacokinetics of the test compound) before social isolation for 15 minutes as described above. The duration and/or number of vocalisation on drug treatment days may be expressed as a percentage of the pre-treatment baseline value for each animal or compared with values obtained in vehicle-treated animals. The same subjects may be retested once weekly for up to 6 weeks. Between 6 and 8 animals receive each test compound at each dose tested.
(v) Determine activity of compounds in assays sensitive to conventional serotonergic drugs (inhibition of pharmacologically evoked foot tapping in gerbils and/or inhibition of distress vocalisations in guinea-pig pups (Assay 4)).

[3] = 5 min, read-out: gerbil foot-tapping (5 mins.) ID50
[4] = 24 hrs., read-out: gerbil foot-tapping (24 hrs.) ID50

C[C@@H](O[C@H]1OCCN(Cc2n[nH]c(=O)[nH]2)[C@H]1c1ccc(F)cc1)c1cc(C(F)(F)F)cc(C(F)(F)F)c1 [2-(R)-(1-(R)-(3,5-bis(trifluoromethyl)phenyl)-ethoxy)-3-(S)-(4-fluorophenyl)-4-(3-(5-oxo-1H,4H-1,2,4-triazolo)methyl)-morpholine]
ED50 (foot tapping in gerbils; [3]): 0.36 mg/kg
ED50 (foot tapping in gerbils; [4]): 0.33 mg/kg
ED90 [1]: < 3 mg/kg
ED50 ([2]; po, 4 hrs. pretreatment): 0.73 mg/kg

C[C@@H](O[C@H]1OCCN(Cc2nn[nH]c2CN(C)C)[C@H]1c1ccccc1)c1cc(C(F)(F)F)cc(C(F)(F)F)c1 [Test Compound A, 2-(R)-(1-(R)-(3,5-bis(trifluoromethyl)phenyl)ethoxy)-4-(5-(dimethylamino)methyl-1,2,3-triazol-4-yl)methyl-3-(S)-phenylmorpholine]
ED50 (foot tapping in gerbils; [3]): 0.12 mg/kg
ED50 (foot tapping in gerbils; [4]): 0.17 mg/kg
attenuation of separation-induced vocalisations compared with baseline ([2]; 0.25 mg/kg s.c. alone): approximately 25%
ED50 ([2]; sc): 0.5 mg/kg

C[C@@H](O[C@@H]1OCCN(Cc2nn[nH]c2CN(C)C)[C@@H]1c1ccccc1)c1cc(C(F)(F)F)cc(C(F)(F)F)c1 [Test Compound B, 2-(S)-(1-(R)-(3,5-bis(trifluoromethyl)phenyl)ethoxy)-4-(5-(dimethylamino)methyl-1,2,3-triazol-4-yl)methyl-3-(R)-phenylmorpholine, reference compound]
attenuation of separation-induced vocalisations, administered alone ([2]; 0.25 mg/kg s.c. alone (FIG. 1)): failure of the less active enantiomer, Test Compound B (0.25 mg/kg s.c.) to attenuate separation-induced vocalisations when administered alone

CNCCC(Oc1ccc(C(F)(F)F)cc1)c1ccccc1 (stereo not shown) [fluoxetine, reference compound]
attenuation of separation-induced vocalisations compared with baseline ([2]; 2 mg/kg i.p. alone): approximately 25%
